US11999715B2, “ASK1 inhibiting agents” (BIOGEN MA INC., priority 2018, dated 2024)

How the values were obtained:
ASK1/MAP3K5 = target: T1, ASK1/MAP3K5 (Homo sapiens, UniProt Q99683); experiment: ASK1/MAP3K5 kinase assay by Reaction Biology Corp. (headed ASK1 TR-FRET Assay); type: biochemical; conditions: 20 μM myelin basic protein, 10 μM ATP, class symbols
T1 sequence (Q99683 1-1374): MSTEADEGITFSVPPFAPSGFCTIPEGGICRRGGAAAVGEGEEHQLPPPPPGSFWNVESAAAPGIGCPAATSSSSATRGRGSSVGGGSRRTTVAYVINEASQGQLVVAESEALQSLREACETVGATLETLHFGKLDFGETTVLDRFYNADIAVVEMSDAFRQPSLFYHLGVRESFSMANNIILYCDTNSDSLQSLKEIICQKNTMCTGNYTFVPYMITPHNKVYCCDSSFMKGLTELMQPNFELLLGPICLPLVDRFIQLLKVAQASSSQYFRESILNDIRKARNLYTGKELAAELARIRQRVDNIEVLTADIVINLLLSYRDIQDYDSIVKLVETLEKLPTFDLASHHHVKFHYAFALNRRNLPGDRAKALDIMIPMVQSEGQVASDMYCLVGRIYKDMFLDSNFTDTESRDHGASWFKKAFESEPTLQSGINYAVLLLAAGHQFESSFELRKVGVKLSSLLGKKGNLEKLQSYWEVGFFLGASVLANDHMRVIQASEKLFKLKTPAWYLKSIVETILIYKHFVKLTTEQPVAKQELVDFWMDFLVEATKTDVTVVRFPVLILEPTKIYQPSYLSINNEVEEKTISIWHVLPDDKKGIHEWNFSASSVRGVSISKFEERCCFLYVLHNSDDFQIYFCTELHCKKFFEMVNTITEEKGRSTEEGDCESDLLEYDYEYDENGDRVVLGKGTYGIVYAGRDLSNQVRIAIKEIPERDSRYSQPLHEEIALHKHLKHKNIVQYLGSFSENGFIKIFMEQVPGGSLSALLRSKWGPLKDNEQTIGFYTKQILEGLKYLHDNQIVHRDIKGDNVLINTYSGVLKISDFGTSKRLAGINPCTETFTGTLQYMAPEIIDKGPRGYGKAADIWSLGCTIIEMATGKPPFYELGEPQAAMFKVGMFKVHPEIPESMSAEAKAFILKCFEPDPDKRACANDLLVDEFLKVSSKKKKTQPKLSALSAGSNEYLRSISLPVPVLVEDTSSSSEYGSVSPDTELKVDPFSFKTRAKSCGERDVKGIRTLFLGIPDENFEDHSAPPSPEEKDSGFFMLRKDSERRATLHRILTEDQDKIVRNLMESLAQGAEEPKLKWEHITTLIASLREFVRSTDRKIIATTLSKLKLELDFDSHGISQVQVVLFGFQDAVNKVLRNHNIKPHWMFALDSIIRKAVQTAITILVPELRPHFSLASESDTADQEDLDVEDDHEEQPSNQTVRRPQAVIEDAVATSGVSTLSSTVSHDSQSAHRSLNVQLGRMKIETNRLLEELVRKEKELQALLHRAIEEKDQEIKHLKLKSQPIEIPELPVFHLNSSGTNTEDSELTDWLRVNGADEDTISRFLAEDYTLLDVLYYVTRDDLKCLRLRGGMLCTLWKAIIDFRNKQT
Summary of the method: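 Radiometric filter-binding assay with ASK1/MAP3K5, 20 μM MBP substrate and 10 μM ATP plus ^33P-ATP in HEPES pH 7.5 buffer with 1% DMSO. Compounds were preincubated with kinase 20 min, and the reaction then ran 2 hours at room temperature.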

[1] = target: T2, ASK1 T838 auto phosphorylation (Homo sapiens, UniProt Q99683); experiment: ASK1 (AUTO PHOS T838) assay, MSD format, in HEK-293T cells transfected with ASK1-V5; type: cell-based; conditions: ASK1 T838 auto phosphorylation in HEK-293T cells, 1 hr compound incubation; class symbols
T2 sequence (Q99683 1-1374): T1 sequence (Q99683 1-1374)
Summary of the method: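 HEK-293T cells transiently transfected with full-length ASK1-V5 plasmid were replated, then treated 1 h at 37 °C with a 10-point, 3-fold series from 20 μM. Lysates were probed by MSD with anti-pASK1 T838 and a sulfo-tag secondary, read by chemiluminescence. IC50 came from a 4-parameter fit of normalized % activity.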

[2] = In vivo brain penetration, rat Kpuu study; conditions: brain and plasma (unbound concentrations), IV infusion for four hours (1 mg/kg) to steady state, Kpuu=Cu,b/Cu,p
Method: Example 113: In Vivo Brain Penetration To evaluate the CNS penetration of the compounds described herein, several compounds were selected for in vivo rat Kpuu studies. In these experiments the compounds are administered via an IV infusion (using N,N-dimethylacetamide:ethanol:1,2-propylene glycol:water in a 1:1:3:5 ratio as the vehicle) in the carotid artery for a period of four hours (1 mg/kg, 0.1 mg/mL) to reach steady state. After this time the plasma and brain concentration levels are quantified, and the values are adjusted by the measured protein binding in plasma and brain homogenate to calculate the Kpuu (see Di, […] . Blood-Brain Barrier in Drug Discovery (Wiley)) according to the equation below. Kpuu=Cu,b/Cu,p Wherein: • Cu,b=Unbound concentration in brain (C×fu,b). (C=concentration at steady state; fu,b=fraction unbound in brain) • And in which: Cu,p=Unbound concentration in plasma (C×fu,p). (C=concentration at steady state; fu,p=fraction unbound in plasma) Plasma and brain protein binding values were generated via the Rapid Equilibrium Dialysis method. The compound of interest was incubated in K2EDTA plasma and brain homogenate (homogenized 1:7 (w:v) in 1×PBS) purchased from BioIVT (Westbury, NY), opposite a buffered compartment of 100 mM Potassium phosphate/150 mM Sodium chloride, pH 7.4, at 1 μM for 4 hr and 6 hr respectively. At the conclusion of incubation samples were taken from both matrix and buffered compartments, matrix-matched using blank buffer and matrix, extracted with acetonitrile, diluted with water, and analyzed utilizing an Agilent RapidFire 365 high-throughput LC coupled with MS/MS detection via an AB Sciex 5500. Free fractions (fu) were then calculated by comparing internal standard/analyte peak-area ratios of matrix and buffered compartments. […] Total drug concentration in plasma and brain tissue was measured via well-established bioanalytical extraction (protein precipitation) and detection methods (LC-MS/MS).

IC50 (ASK1/MAP3K5) [nM]	IC50 [1] [nM]	Kp uu at 4 h [2]	SMILES
≤ 100	≤ 1000	0.14	C[C@@H](n1cnnc1-c1cccc(NC(=O)c2cn(C)nc2C(F)F)n1)C(F)(F)F [Example 23, (R)-3-(Difluoromethyl)-1-methyl-N-(6-(4-(1,1,1-trifluoropropan-2-yl)-4H-1,2,4-triazol-3-yl)pyridin-2-yl)-1H-pyrazole-4-carboxamide]
≤ 100	≤ 1000	0.16	COc1nn(-c2ncccc2C)cc1C(=O)Nc1cccc(-c2nncn2C(C)C)n1 [Example 62, N-(6-(4-Isopropyl-4H-1,2,4-triazol-3-yl)pyridin-2-yl)-3-methoxy-1-(3-methylpyridin-2-yl)-1H-pyrazole-4-carboxamide]
100 to 1000	≤ 1000		CC(C)n1cncc1-c1cccc(NC(=O)c2cn(-c3cncc(N(C)C)c3)nc2C(F)F)n1 [Example 98, 3-(Difluoromethyl)-1-(5-(dimethylamino)pyridin-3-yl)-N-(6-(1-isopropyl-1H-imidazol-5-yl)pyridin-2-yl)-1H-pyrazole-4-carboxamide]
≤ 100	≤ 1000		CC(C)n1cnnc1-c1cccc(NC(=O)c2cn(CC3CC3)nc2C(F)F)n1 [Example 50, 1-(Cyclopropylmethyl)-3-(difluoromethyl)-N-(6-(4-isopropyl-4H-1,2,4-triazol-3-yl)pyridin-2-yl)-1H-pyrazole-4-carboxamide]
≤ 100	≤ 1000		COc1nn(Cc2ccccc2)cc1C(=O)Nc1cccc(-c2nncn2C(C)C)n1 [Example 8, 1-Benzyl-N-(6-(4-isopropyl-4H-1,2,4-triazol-3-yl)pyridin-2-yl)-3-methoxy-1H-pyrazole-4-carboxamide]
100 to 1000	≤ 1000		COC[C@@H](C)n1cnnc1-c1cccc(NC(=O)c2cn(C)nc2OC)n1 (single isomer, unassigned) [Example 34]
≤ 100	≤ 1000		COc1nn(C)cc1C(=O)Nc1cccc(-c2nncn2C(C)C(F)F)n1 (stereo not shown) [Example 26, N-(6-(4-(1,1-Difluoropropan-2-yl)-4H-1,2,4-triazol-3-yl)pyridin-2-yl)-3-methoxy-1-methyl-1H-pyrazole-4-carboxamide]
≤ 100	≤ 1000		COc1nn(CC(F)(F)F)cc1C(=O)Nc1cccc(-c2nncn2[C@@H](C)C(F)(F)F)n1 [Example 103, (S)-3-Methoxy-1-(2,2,2-trifluoroethyl)-N-(6-(4-(1,1,1-trifluoropropan-2-yl)-4H-1,2,4-triazol-3-yl)pyridin-2-yl)-1H-pyrazole-4-carboxamide]
100 to 1000	1000 to 10000		CC(C)n1cnnc1-c1cccc(NC(=O)c2cn(C)nc2C(F)(F)F)n1 [Example 5, N-(6-(4-Isopropyl-4H-1,2,4-triazol-3-yl)pyridin-2-yl)-1-methyl-3-(trifluoromethyl)-1H-pyrazole-4-carboxamide]
≤ 100	≤ 1000		COc1nn(-c2cncc(C#N)c2)cc1C(=O)Nc1cccc(-c2nncn2C(C)C)n1 [Example 69, 1-(5-Cyanopyridin-3-yl)-N-(6-(4-isopropyl-4H-1,2,4-triazol-3-yl)pyridin-2-yl)-3-methoxy-1H-pyrazole-4-carboxamide]
≤ 100	≤ 1000	0.33	C=CCn1cc(C(=O)Nc2cccc(-c3nncn3C(C)C(F)(F)F)n2)c(OC)n1 (stereo not shown) [Example 56, 1-Allyl-3-methoxy-N-(6-(4-(1,1,1-trifluoropropan-2-yl)-4H-1,2,4-triazol-3-yl)pyridin-2-yl)-1H-pyrazole-4-carboxamide]
100 to 1000	≤ 1000		COCCn1cc(C(=O)Nc2cccc(-c3nncn3[C@H](C)C(F)(F)F)n2)c(OC)n1 [Example 53, (R)-3-Methoxy-1-(2-methoxyethyl)-N-(6-(4-(1,1,1-trifluoropropan-2-yl)-4H-1,2,4-triazol-3-yl)pyridin-2-yl)-1H-pyrazole-4-carboxamide]
100 to 1000	≤ 1000		CC(C)n1cnnc1-c1cccc(NC(=O)c2cn(C)nc2C(F)F)n1 [Example 6, 3-(Difluoromethyl)-N-(6-(4-isopropyl-4H-1,2,4-triazol-3-yl)pyridin-2-yl)-1-methyl-1H-pyrazole-4-carboxamide]
100 to 1000	≤ 1000		COc1nn(C)cc1C(=O)Nc1cccc(-c2nncn2C2CCN(C(=O)OC(C)(C)C)CC2)n1 [Example 38, tert-Butyl 4-(3-(6-(3-methoxy-1-methyl-1H-pyrazole-4-carboxamido)pyridin-2-yl)-4H-1,2,4-triazol-4-yl)piperidine-1-carboxylate]
≤ 100	≤ 1000		COc1nn(C)cc1C(=O)Nc1cccc(-c2nncn2C2CC2)n1 [Example 18, N-(6-(4-Cyclopropyl-4H-1,2,4-triazol-3-yl)pyridin-2-yl)-3-methoxy-1-methyl-1H-pyrazole-4-carboxamide]
≤ 100	1000 to 10000		COc1nn(C)cc1C(=O)Nc1cccc(-c2nncn2[C@@H](C)CO)n1 (single isomer, unassigned) [Example 37]
≤ 100	≤ 1000		CC(C)n1cnnc1-c1cccc(NC(=O)c2cn(-c3cncc(C4CC4)c3)nc2C(F)F)n1 [Example 77, 1-(5-Cyclopropylpyridin-3-yl)-3-(difluoromethyl)-N-(6-(4-isopropyl-4H-1,2,4-triazol-3-yl)pyridin-2-yl)-1H-pyrazole-4-carboxamide]
